Experimental data as given in paper PMC12469269, “Investigating SMR Peptide Interactions with Breast Cancer-Associated Proteins” (International Journal of Molecular Sciences, 2025).

System: Jurkat T cells
Test: EV secretion, Nef-GFP (Figure 6A), Jurkat T cells
Assay type: cell-based
Settings: 349.6 nM SMRwt-CPP or 357.27 nM VIMwt-CPP, 24 h
Protocol: To investigate whether SMRwt and VIMwt peptides can suppress extracellular vesicle (EV) secretion, Jurkat T cells were co-transfected with wild-type Nef-GFP and treated with either SMRwt-CPP (349.6 nM) or VIMwt-CPP (357.27 nM) peptides. GFP fluorescence in the culture media was used as a proxy for Nef-associated EV release after 24 h of incubation.
Figure 6 SMRwt and VIMwt peptides decrease extracellular vesicle secretion in Jurkat T cells and breast cancer cells. (A) Jurkat T cells were co-transfected with 1 µg of wild-type Nef-GFP plasmid and treated with either 349.6 nM SMRwt-CPP or 357.27 nM VIMwt-CPP peptides. After 24 h at 37 °C, culture media were collected and assayed for extracellular vesicle (EV) secretion using GFP fluorescence as a proxy. (B,C) MDA-MB-231 and MCF-7 breast cancer cells were treated with either 349.6 nM SMRwt-CPP or 357.27 nM VIMwt-CPP peptides for 24 h at 37 °C. Cells were then labeled with 5 µM N-Rh-PE at 4 °C for 1 h, washed, and incubated in fresh media for an additional 24 h. Supernatants were assayed for EV secretion using N-Rh-PE fluorescence. Bar graphs show relative EV levels. Data represent mean ± SD from three independent experiments. Statistical comparisons were performed using appropriate tests; p-values are indicated. […]

H-LYEEEMREGRKKRRQRRRPPQ - OH [VIMwt-CPP]
p, peptide vs Nef-GFP alone, EV secretion: < 0.0006
